In article PMC4862498, “PI4 Kinase Is a Prophylactic but Not Radical Curative Target in Plasmodium vivax-Type Malaria Parasites” (Antimicrobial Agents and Chemotherapy, 2016):

Experiment: Clinical chemistry, hematology, weight and clinical observation of treated monkeys
Type: in vivo, rhesus macaques (Macaca mulatta)
Conditions: rhesus monkey, in vivo
Experimental: Monkeys were treated according to the schedule shown in Table 1 (stratification of treatment groups is given in the supplemental material). During treatment, monkeys were weighed daily and received the compound via gavage, followed by gastric feeding (weight change during treatment is shown in Table S6 in the supplemental material). Monkeys in the prophylaxis groups (groups 691-proph and 599-proph) were treated ∼20 min after the i.v. sporozoite injection. The other monkeys were treated when all the monkeys in the experiment (except those in the prophylaxis group) were blood-stage patent (at day 11 p.i.). To kill the blood-stage parasites, all monkeys received a 5-day treatment of 7.5 mg/kg of body weight of chloroquine (CQ) (intramuscular [i.m.] injection), during compound dosing. KDU691 was formulated in 0.5% methylcellulose and 0.5% Tween 80 in water. LMV599 was formulated as a solid dispersion in a solution containing 5.6% (wt/wt) Tween 80–44.4% hydroxypropyl methylcellulose (HPMC) E3–38.9% Soluplus–11.1% vitamin E D-alphatocopheryl polyethylene glycol 1000 succinate (TPGS).
Blood samples were collected for clinical evaluation and pharmacokinetic (PK) analysis (see Table S2 in the supplemental material).
When the first relapse was observed, monkeys of the KDU691 experiment were radically cured with primaquine (PQ)/CQ (oral administration of 1.8 mg/kg PQ for 14 days together with i.m. administration of 7.5 mg/kg CQ for the first five days of PQ treatment) to cure both blood stage and liver stage parasites, […]
The monkeys of the LMV599/PQ experiment were cured with a five day CQ treatment (7.5 mg/kg, i.m. administration) at the first relapse and were monitored until the second relapse after which they were cured with CQ (7.5 mg/kg, intramuscular (i.m.) for five days) plus PQ (1.8 mg/kg for 14 days).
Table S2: PK and clinical blood sampling schedule in monkeys.
Groups are named 691 for KDU691 and 599 for LMV599 treatment groups, followed by -C for control group (no compound), -proph for prophylactic treatment (treated immediately after infection), and -RC for radical cure treatment (treated when blood stage positive). […]
the face and chest areas were very yellow. Therefore the 691-RC group (treated from d11 to d15 pi) was monitored by daily clinical chemistry analysis during dosing to be compared with untreated 691-C. […]
sampling of the single dose prophylaxis group at day 0, 1, 7 and 100. The lack of aberrant clinical […]
as radical cure compound, during which also clinical sampling was performed daily. a: only clinical chemistry samples were taken. *: t = 24 sample was taken only on the 1st day of dosing.
Group name Clin. chem PK sampling PK time points
Hematology (h post dosing)
691-proph 1st and 5th day of dosing t = 0, 1, 4, 6 and 24*
691-RC Dailya 1st and 5th day of dosing t = 0, 1, 4, 6 and 24* […]
599-RC Daily 1st and 4th day of dosing t = 0, 1, 2, 4 and 24
Clinical chemistry and hematology
For the clinical analysis serum from 1 mL of clotted blood was analysed using the Cobas Integra 400 plus fully automated chemistry analyser. The following clinical parameters were determined: Alkaline phosphatase; Alanine Aminotransferase; Albumin: Aspartate aminotransfeasr; Bilirubin; Calcium; Cholesterol; Creatine kinase; Creatinine; C-reactive protein: Iron; Phosphate; Gamma-glutamyl transpeptidase; Glucose; Hemoglobin; Potassium; Lactate dehydrogenase; Sodium; Total protein; Urea Haematological parameters were determined from 1 mL EDTA-blood with a Sysmex XT-2000iV automated system. The following hematological parameters were determined: Basophilic granulocytes; Eosinophilic granulocytes; Erythrocytes; Hematocrit; Leucocytes; Leucocyte differentiation; Lymphocytes; Mean corpusculair hemoglobin; Mean corpusculair hemoglobin concentration; Mean corpusculair volume; Neutrophilic granulocytes; Red cell distribution width; Thrombocytes […]
Liver tissue samples were excised, dipped in PBS, gently blotted with absorbent paper, dried, weighed and stored at -20 °C until further analysis. […]

Structure (SMILES): CNC(=O)c1ccc(-c2cnc3cnc(C(=O)N(C)c4ccc(Cl)cc4)cn23)cc1 [KDU691]
- weight loss, % of the initial weight: 3.5%
